# Data as given in article PMC12649549, “Sequence Permutation Generated Lysine and Tryptophan-Rich Antimicrobial Peptides with Enhanced Therapeutic Index” (Antibiotics, 2025).
# Like-named read-outs stand apart in the source and are kept apart here.
# Assays:
# [1] = test system: A. baumannii 14B00100 (Acinetobacter sp., BCRC number 14B0100)
# Procedure: (§1) The antibacterial and salt-resistant activity of the peptides was tested using Escherichia coli (ATCC 25922), Pseudomonas aeruginosa Migula (ATCC 27853), Acinetobacter sp. (BCRC number 14B0091, BCRC number 14B0097, and BCRC number 14B0100), and Staphylococcus aureus sp. strains (ATCC 25923, ATCC 33591, ATCC 33592, ATCC 33593, and ATCC 6538). All bacteria were obtained from the Food Industry Research and Development Institute (Hsinchu, Taiwan) and cultured in sterilized Müller-Hinton (MH) broth at 37 °C and 200 rpm for 8 h. The inoculum concentrations were determined by measuring the optical density at 600 nm (OD 600 = 1, approximately 10^8 CFU/mL) using an Ultrospec 2100 pro UV-Visible spectrophotometer (Biochrom Ltd., Cambridge, UK) after 8 h of culture.
# (§2) The antibacterial activities of the peptides in Müller-Hinton (MH) broth and modified LYM broth were determined using the standard broth microdilution method as per Clinical and Laboratory Standards Institute (CLSI) guidelines. The LYM broth was prepared with specific components and adjusted to different conditions, including varying concentrations of NaCl and MgCl2, and different pH levels. To prepare the LYM broth, 5.4 mM KCl, 5.6 mM Na2HPO4, 0.5 mM MgSO4, and 1.0 mM sodium citrate were added. Additionally, 0.4 mg of ZnCl2, 2.0 mg of FeCl3·6H2O, 0.1 mg of CuSO4·5H2O, 0.1 mg of MnSO4·H2O, 0.1 mg of Na2B4O7∙10H2O, 700 mg of amino acid mixtures without tryptophan (Takara Bio Inc., San Jose, CA, USA), and 20 mg of L-tryptophan were added per liter of medium. The pH was adjusted to 7.4, and a vitamin mixture (100X, Sigma) and glucose concentration of 2% were added. For different conditions of LYM broth, NaCl concentrations of 300, 200, 150, and 50 mM, MgCl2 concentrations of 2.5, 1.5, and 0.5 mM, and pH levels of 6.5, 5.5, and 4.5 were adjusted. Bacterial strains were incubated in MH broth overnight, regrown, and diluted to a final concentration of 5 × 10^5 CFU/mL. Peptides were added to each well at final concentrations of 50, 25, 12.5, 6.25, 3.13, 1.56, and 0.78 µg/mL, and 99 µL of diluted microbes was loaded into each well of a polypropylene 96-well plate. […] The Morpheus HeatMap software (https://software.broadinstitute.org/morpheus/) was used to display MIC values on a color scale. All experiments were independently repeated three times.
# [2] = test system: A. baumannii 14B0091 (Acinetobacter sp., BCRC number 14B0091)
# Procedure: as §1, §2
# [3] = test system: A. baumannii 14B0097 (Acinetobacter sp., BCRC number 14B0097)
# Procedure: as §1, §2
# [4] = test system: Escherichia coli (ATCC 25922)
# Procedure: as §1, §2
# S. aureus ATCC 25923 = test system: S. aureus ATCC 25923
# Procedure: as §1, §2
# S. aureus ATCC 33591 = test system: S. aureus ATCC 33591
# Procedure: as §1, §2
# S. aureus ATCC 33593 = test system: S. aureus ATCC 33593
# Procedure: as §1, §2
# S. aureus ATCC 6538 = test system: S. aureus ATCC 6538
# Procedure: as §1, §2
# [5] = LYM broth, 0 mM NaCl, 16 h, 37 °C
# [6] = LYM broth, 50 mM NaCl, 16 h, 37 °C
# [7] = LYM broth, 100 mM NaCl, 16 h, 37 °C
# [8] = LYM broth, 200 mM (NaCl), 16 h, 37 °C
# [9] = LYM broth, 300 mM (NaCl), 16 h, 37 °C
# [10] = MH broth, 5 × 10^5 CFU/mL, 16 h, 37 °C, repeated three times
substance,measurement,setting,value
Ac-KKKKWRKWLKWLA-NH2 [Peptide W5K11],MIC,[1]; [5],0.78 µg/mL
same,MIC,"[1]; LYM broth, 0.5 mM MgCl2",1.56 µg/mL
same,MIC,"[1]; LYM broth, 1.5 mM MgCl2",1.56 µg/mL
same,MIC,"[1]; LYM broth, 2.5 mM MgCl2",1.56 µg/mL
same,MIC,[1]; [6],0.78 µg/mL
same,MIC,[1]; [7],0.78 µg/mL
same,MIC,[1]; [8],0.78 µg/mL
same,MIC,[1]; [9],0.78 µg/mL
same,MIC,"[1]; LYM broth, pH 4.5",1.56 µg/mL
same,MIC,"[1]; LYM broth, pH 5.5",1.56 µg/mL
same,MIC,"[1]; LYM broth, pH 6.5",1.56 µg/mL
same,MIC,[1]; [10],1.56 µg/mL
same,MIC,[2]; [5],1.56 µg/mL
same,MIC,"[2]; LYM broth, 0.5 mM MgCl2",1.56 µg/mL
same,MIC,"[2]; LYM broth, 1.5 mM MgCl2",1.56 µg/mL
same,MIC,"[2]; LYM broth, 2.5 mM MgCl2",1.56 µg/mL
same,MIC,[2]; [6],1.56 µg/mL
same,MIC,[2]; [7],1.56 µg/mL
same,MIC,[2]; [8],1.56 µg/mL
same,MIC,[2]; [9],1.56 µg/mL
same,MIC,"[2]; LYM broth, pH 4.5",1.56 µg/mL
same,MIC,"[2]; LYM broth, pH 5.5",1.56 µg/mL
same,MIC,"[2]; LYM broth, pH 6.5",1.56 µg/mL
same,MIC,[2]; [10],0.78 µg/mL
same,MIC,[3]; [5],1.56 µg/mL
same,MIC,"[3]; LYM broth, 0.5 mM MgCl2",1.56 µg/mL
same,MIC,"[3]; LYM broth, 1.5 mM MgCl2",1.56 µg/mL
same,MIC,"[3]; LYM broth, 2.5 mM MgCl2",1.56 µg/mL
same,MIC,[3]; [6],1.56 µg/mL
same,MIC,[3]; [7],1.56 µg/mL
same,MIC,[3]; [8],1.56 µg/mL
same,MIC,[3]; [9],1.56 µg/mL
same,MIC,"[3]; LYM broth, pH 4.5",1.56 µg/mL
same,MIC,"[3]; LYM broth, pH 5.5",1.56 µg/mL
same,MIC,"[3]; LYM broth, pH 6.5",1.56 µg/mL
same,MIC,[3]; [10],1.56 µg/mL
same,MIC,[4]; [5],1.56 µg/mL
same,MIC,"[4]; LYM broth, 0.5 mM MgCl2",3.13 µg/mL
same,MIC,"[4]; LYM broth, 1.5 mM MgCl2",3.13 µg/mL
same,MIC,"[4]; LYM broth, 2.5 mM MgCl2",3.13 µg/mL
same,MIC,[4]; [6],1.56 µg/mL
same,MIC,[4]; [7],3.13 µg/mL
same,MIC,[4]; [8],3.13 µg/mL
same,MIC,[4]; [9],6.25 µg/mL
same,MIC,"[4]; LYM broth, pH 4.5",1.56 µg/mL
same,MIC,"[4]; LYM broth, pH 5.5",1.56 µg/mL
same,MIC,"[4]; LYM broth, pH 6.5",1.56 µg/mL
same,MIC,[4]; [10],6.25 µg/mL
same,MIC,S. aureus ATCC 25923; [5],1.56 µg/mL
same,MIC,"S. aureus ATCC 25923; LYM broth, 0.5 mM MgCl2",1.56 µg/mL
same,MIC,"S. aureus ATCC 25923; LYM broth, 1.5 mM MgCl2",1.56 µg/mL
same,MIC,"S. aureus ATCC 25923; LYM broth, 2.5 mM MgCl2",1.56 µg/mL
same,MIC,S. aureus ATCC 25923; [6],1.56 µg/mL
same,MIC,S. aureus ATCC 25923; [7],3.13 µg/mL
same,MIC,S. aureus ATCC 25923; [8],3.13 µg/mL
same,MIC,S. aureus ATCC 25923; [9],6.25 µg/mL
same,MIC,"S. aureus ATCC 25923; LYM broth, pH 4.5",3.13 µg/mL
same,MIC,"S. aureus ATCC 25923; LYM broth, pH 5.5",1.56 µg/mL
same,MIC,"S. aureus ATCC 25923; LYM broth, pH 6.5",1.56 µg/mL
same,MIC,S. aureus ATCC 25923; [10],3.13 µg/mL
same,MIC,S. aureus ATCC 33591; [5],3.13 µg/mL
same,MIC,"S. aureus ATCC 33591; LYM broth, 0.5 mM MgCl2",3.13 µg/mL
same,MIC,"S. aureus ATCC 33591; LYM broth, 1.5 mM MgCl2",3.13 µg/mL
same,MIC,"S. aureus ATCC 33591; LYM broth, 2.5 mM MgCl2",3.13 µg/mL
same,MIC,S. aureus ATCC 33591; [6],3.13 µg/mL
same,MIC,S. aureus ATCC 33591; [7],3.13 µg/mL
same,MIC,S. aureus ATCC 33591; [8],6.25 µg/mL
same,MIC,S. aureus ATCC 33591; [9],6.25 µg/mL
same,MIC,"S. aureus ATCC 33591; LYM broth, pH 4.5",3.13 µg/mL
same,MIC,"S. aureus ATCC 33591; LYM broth, pH 5.5",3.13 µg/mL
same,MIC,"S. aureus ATCC 33591; LYM broth, pH 6.5",3.13 µg/mL
same,MIC,S. aureus ATCC 33591; [10],12.5 µg/mL
same,MIC,S. aureus ATCC 33593; [5],3.13 µg/mL
same,MIC,"S. aureus ATCC 33593; LYM broth, 0.5 mM MgCl2",3.13 µg/mL
same,MIC,"S. aureus ATCC 33593; LYM broth, 1.5 mM MgCl2",3.13 µg/mL
same,MIC,"S. aureus ATCC 33593; LYM broth, 2.5 mM MgCl2",3.13 µg/mL
same,MIC,S. aureus ATCC 33593; [6],3.13 µg/mL
same,MIC,S. aureus ATCC 33593; [7],3.13 µg/mL
same,MIC,S. aureus ATCC 33593; [8],3.13 µg/mL
same,MIC,S. aureus ATCC 33593; [9],6.25 µg/mL
same,MIC,"S. aureus ATCC 33593; LYM broth, pH 4.5",3.13 µg/mL
same,MIC,"S. aureus ATCC 33593; LYM broth, pH 5.5",1.56 µg/mL
same,MIC,"S. aureus ATCC 33593; LYM broth, pH 6.5",1.56 µg/mL
same,MIC,S. aureus ATCC 33593; [10],6.25 µg/mL
same,MIC,S. aureus ATCC 6538; [5],1.56 µg/mL
same,MIC,"S. aureus ATCC 6538; LYM broth, 0.5 mM MgCl2",1.56 µg/mL
same,MIC,"S. aureus ATCC 6538; LYM broth, 1.5 mM MgCl2",1.56 µg/mL
same,MIC,"S. aureus ATCC 6538; LYM broth, 2.5 mM MgCl2",1.56 µg/mL
same,MIC,S. aureus ATCC 6538; [6],1.56 µg/mL
same,MIC,S. aureus ATCC 6538; [7],3.13 µg/mL
same,MIC,S. aureus ATCC 6538; [8],3.13 µg/mL
same,MIC,S. aureus ATCC 6538; [9],6.25 µg/mL
same,MIC,"S. aureus ATCC 6538; LYM broth, pH 4.5",3.13 µg/mL
same,MIC,"S. aureus ATCC 6538; LYM broth, pH 5.5",1.56 µg/mL
same,MIC,"S. aureus ATCC 6538; LYM broth, pH 6.5",1.56 µg/mL
same,MIC,S. aureus ATCC 6538; [10],3.13 µg/mL
